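Growth conditions: 96-well plates. Treatment: test compound, 48 hours, 5 concentrations. Analysis: linear interpolation between bracketing concentrations; unreached endpoints set to highest concentration. GI50 is the concentration that inhibits growth by half. TGI is the concentration that stops growth completely.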
How the values were obtained:
Assay in all cases: NCI anticancer screen, dose series, 48 h
HCT-15 colon = system: HCT-15 colon
OVCAR-4 ovarian = system: OVCAR-4 ovarian
IGROV1 ovarian = system: IGROV1 ovarian
BT-549 breast = system: BT-549 breast
RPMI-8226 leukemia = system: RPMI-8226 leukemia
SW-620 colon = system: SW-620 colon
SNB-19 CNS = system: SNB-19 CNS
SF-295 CNS = system: SF-295 CNS
OVCAR-3 ovarian = system: OVCAR-3 ovarian
NCI-H23 lung = system: NCI-H23 lung

| Structure (SMILES) | GI50 (HCT-15 colon) [µM] | TGI (HCT-15 colon) [µM] | GI50 (OVCAR-4 ovarian) [µM] | TGI (OVCAR-4 ovarian) [µM] | GI50 (IGROV1 ovarian) [µM] | TGI (IGROV1 ovarian) [µM] | GI50 (BT-549 breast) [µM] | TGI (BT-549 breast) [µM] | GI50 (RPMI-8226 leukemia) [µM] | TGI (RPMI-8226 leukemia) [µM] | GI50 (SW-620 colon) [µM] | TGI (SW-620 colon) [µM] | GI50 (SNB-19 CNS) [µM] | TGI (SNB-19 CNS) [µM] | GI50 (SF-295 CNS) [µM] | TGI (SF-295 CNS) [µM] | GI50 (OVCAR-3 ovarian) [µM] | TGI (OVCAR-3 ovarian) [µM] | GI50 (NCI-H23 lung) [µM] | TGI (NCI-H23 lung) [µM] |
| --- | --- | --- | --- | --- | --- | --- | --- | --- | --- | --- | --- | --- | --- | --- | --- | --- | --- | --- | --- | --- |
| Cc1nc2ccccn2c1NC(=O)NN1C(=O)CSC1c1ccc(Cl)cc1 (centres undefined) | > 100 | > 100 | > 100 | > 100 | > 100 | > 100 | > 100 | > 100 | > 100 | > 100 | > 100 | > 100 | > 100 | > 100 | > 100 | > 100 | > 100 | > 100 | – | – |
| COc1ccccc1-n1cnc(N)c1C(=O)c1cc(OC)c(OC)c(OC)c1 | 3.36 | > 100 | 6.5 | > 100 | 3.88 | > 100 | 3.55 | 66.2 | 2.42 | 13.3 | 3.25 | > 100 | 4 | > 100 | 2.73 | > 100 | 3.34 | 19.3 | 9.5 | > 100 |
| C[C@@H]1CC[C@H]2[C@@H](C)C(O)O[C@@H]3O[C@]4(C)CC[C@@H]1[C@]32OO4 (some centres undefined) | 0.141 | 13.8 | 2.43 | > 56.7 | 1.13 | 5.23 | 0.721 | 45.4 | 0.143 | – | 0.347 | 17 | 3.39 | > 72.6 | 0.625 | 35.4 | 0.431 | 15.6 | 0.442 | 10.7 |
| Nc1nc(=O)n(C2CC(O)C(CO)O2)cc1F (centres undefined) | 28.4 | > 100 | 47.7 | > 100 | > 100 | > 100 | – | > 100 | – | > 100 | – | > 100 | – | – | – | > 100 | – | > 100 | < 0.0332 | > 28.5 |
| O=C1/C(=C/c2cccnc2)SC(=S)N1Cc1ccco1 | – | > 100 | – | 77.6 | – | > 42.3 | – | > 100 | – | > 23.7 | – | > 100 | – | > 100 | – | > 100 | – | 10.4 | – | > 100 |
| CN(C)c1ccc(/C=C/C(=O)c2ccc(Nc3nc(Nc4ccc(F)cc4)nc(Nc4ccc(F)cc4)n3)cc2)cc1 | 19.4 | > 100 | 15 | 53.4 | 16.7 | 45 | 13.5 | 43.6 | 7.62 | > 100 | 18 | 46 | 29.6 | > 100 | 15 | 41.3 | 16.8 | 46 | 19.6 | 68.6 |
| O=C(O)C1C2C=CC(O2)C1C(=O)NCc1cccnc1 (centres undefined) | – | > 100 | – | > 100 | – | > 100 | – | > 100 | – | > 100 | – | > 100 | – | > 100 | – | > 100 | – | > 100 | – | > 100 |
| Cc1nnc(C[C@@H]2C=C(c3ccc(Cl)cc3)c3ccccc3-n3c(C)nnc32)o1 | 0.461 | 40.2 | 1.29 | > 100 | 2.3 | > 100 | 1.48 | 29.2 | 0.135 | 19.8 | 12 | 68.7 | 5.53 | > 100 | 1.71 | 43 | 1.08 | 19.8 | 1.51 | 96.9 |
| C[C@@H](O)[C@@H](C)Oc1nc(Nc2ccc(S(=N)(=O)C3CC3)cc2)ncc1C(F)(F)F (some centres undefined) | 0.0329 | > 46.8 | 0.0442 | 26.9 | 0.0291 | 25.2 | 0.0274 | 0.182 | 0.0226 | 0.0586 | 0.0281 | 4.35 | 0.0309 | 43 | 0.0312 | > 55.3 | 0.018 | 18.6 | 0.0322 | 0.318 |
| N#C/C(=C\c1ccc(O)c(O)c1)C(=O)NCc1ccc(C(F)(F)F)cc1 | 4.05 | 41.1 | 13.3 | > 71.9 | 2.4 | 14.4 | 10.6 | > 53.7 | 3.21 | – | 7.68 | 37.8 | 11.2 | > 68 | 3.39 | 11.8 | 0.507 | 1.11 | 4.54 | 18.5 |
| CNC(=O)c1cc(Oc2ccc3nc(NC(=O)Nc4ccc(CN5CCOCC5)c(C(F)(F)F)c4)sc3c2)ccn1 | 2.08 | 7.09 | 1.72 | 5.64 | 2.77 | 10.5 | 3.02 | 9.18 | 1.72 | 4.49 | 3.31 | 10 | 3.82 | 16.4 | 1.9 | 4.73 | 1.79 | 4.16 | 1.7 | 4.22 |
| CC/C=C\C[C@H]1C/C=C2/C(=O)C=C[C@H]2C/C=C\CCCC(=O)O1 | 1.5 | 7.04 | 2.81 | 9.73 | 2.66 | 8.99 | 2.52 | 9.29 | 1.59 | 4.82 | 2.58 | 10.4 | 5.17 | 11.2 | 2.62 | 9.33 | 1.65 | 5.94 | 2.15 | 9.92 |
| COc1ccc(-c2nn(-c3cccc(Cl)c3)cc2/C=C2\NC(=S)N(c3ccc(Cl)cc3)C2=O)cc1 | 7.94 | > 25 | 3.54 | 7.45 | 4.99 | 10.1 | 4.46 | 11.6 | 3.53 | 15.9 | 8.51 | > 25 | 6.54 | > 25 | 4.63 | 12 | 5.54 | 12.9 | 3.78 | 9.23 |

From PubChem BioAssay (NCI)
